As usually defined, the IC50 is the concentration that inhibits the measured activity by half. What is called EC50 is the concentration at which the effect is half-maximal.

The values that follow come from publication PMC10892719 (Pharmaceutics, 2024).

SMILES strings stand for the structures. “Also recorded” adds a separate entry of the source. Read-outs that look alike come from different tables or passages of the source.

The target of data set [1] is T1, Aβ1-42 (Homo sapiens, UniProt P05067).
T1 construct: purchased Genecust, Boynes, France
To be noted: thioflavin T fluorescence method; cited from earlier work.

Data set [2] has as its target T2, electric eel acetylcholinesterase (eeAChE) (Electrophorus electricus, UniProt O42275).
T2 construct: purchased Sigma-Aldrich (Steinheim, Germany)
As to the kind of experiment: AChE inhibition, adapted Ellman method. Format: biochemical. Conditions: mean of two independent experiments ± SD, read-out: AChE Inhib IC50. The protocol: (§1) The enzyme inhibition of electric eel acetylcholinesterase (eeAChE) and equine butyrylcholinesterase (eqBChE) by our compounds was evaluated through an adaptation of Elmman´s method using reagents from Sigma-Aldrich (Steinheim, Germany). Stock solutions of each compound (1 mg) in MeOH (1 mL) were prepared and then working solutions for each ligand were obtained by the corresponding dilution of the stock solutions. A control measurement with 5 replicates (without ligand) and a calibration curve of 5 points with 3 replicates per point was performed. The preparation of each solution involved fixed volumes of 4-(2-hydroxyethyl)-1-piperazine-ethanesulfonic acid (HEPES) and cholinesterase (eeAChE or eqBChE) with different volumes of ligand solution, and it was left to rest for 15 min immediately after adding the cholinesterase. A blank solution containing HEPES and MeOH was also prepared at the same time. […] The slope for each calibration point (absorbance versus reaction time) was determined and the inhibition for each compound was calculated by using the following equation: %Inhibition=100−(vi/v0×100) where vi is the reaction rate (slope) for each point of the calibrate with ligand and v0 is the initial reaction rate (slope) for the control point (without ligand). […] Experiments were performed twice for each compound.
On the technique in general: DTNB colorimetry detects thiols as they appear.

Data set [3] concerns the target T3, equine butyrylcholinesterase (eqBChE) (Equus caballus, UniProt P81908).
T3 construct: purchased Sigma-Aldrich (Steinheim, Germany)
As to the kind of experiment: BChE inhibition, adapted Ellman method. The class given is biochemical. The protocol:
as §1

For data set [4], the system named is SH-SY5Y cells. In words: Neuroprotection against iron/ascorbate-induced toxicity, MTT. To be noted: ferrous sulfate 5 mM and L-ascorbic acid 2.5 mM, 24 h, optimized concentration of each compound. The class given is cell-based, human. On the procedure: (§2) Cell viability, following treatment with the compounds, was determined using the colorimetric MTT (3-(4,5-dimethylthiazol-2-yl)-2,5-diphenyltetrazolium bromide) assay. The tested compounds (5a1-3, 5b1-3, 5c1-3) were dissolved in DMSO to produce stock solutions of 25 mM and stored at −20 °C. A concentration screening was performed for 0.5 µM to 20 µM final concentrations to choose the highest nontoxic concentration. SH-SY5Y human neuroblastoma cell line (ATCC-CRL-2266) was cultured in Dulbecco’s modified Eagle’s medium (DMEM) (Gibco-Invitrogen, Life Technologies Ltd., Waltham, MA, USA) with heat-inactivated fetal calf serum (10%), penicillin (50 U/mL) and streptomycin (50 µg/mL) at 37 °C with 5% CO2. Cells were plated at 0.15 × 10^6 cells/mL one day prior to the start of the experiment. The cells were then incubated with the appropriate concentration of the compounds for 24 h. After the incubation period, the cells were washed once with PBS and incubated with 200 µL MTT (0.5 mg/mL) for 2 h at 37 °C with 5% CO2. During this period, cellular dehydrogenase successfully metabolized MTT into formazan, which was then solubilized using 200 µL of 0.04 M HCl/isopropanol. Absorbance was measured at 570 nm.
To test whether the compounds have a protective effect against toxicity induced by Aβ1-42 or iron/ascorbate, the cells were pre-incubated for 1 h with each compound, followed by the addition of Aβ1-42 or iron/ascorbate and incubation for an additional 24 h. Aβ1-42 (Bachem, Torrance, CA, USA) was prepared in sterile water to produce a stock solution of 443 µM and added to the cells at a final concentration of 1 µM. […] All data are expressed as mean ± SEM of at least three independent experiments performed in duplicate. […]
Figure 5 Neuroprotective effect of RIV-IND compounds against cellular toxicity induced by iron/ascorbate (Fe/Asc) measured by MTT reduction ability on SH-SY5Y cells pretreated with iron/ascorbate for one hour, followed by a 24 h incubation with the optimized concentration of each compound. […]

The test system of data set [5] is SH-SY5Y cells. In words: Cell viability dose-response screening, MTT. To be noted: 24 h, screening 0.5 µM to 20 µM. The class given is cell-based, human. The protocol: as §2
The new RIV-IND hybrids were tested to determine their protective role in the toxicity induced by either Aβ1-42 peptides or iron/ascorbate. SH-SY5Y cells were incubated with a set of concentrations of each of the compounds and a dose–response curve was constructed to select the highest nontoxic concentration.
Figure 3 Dose–response screening of RIV-IND compounds 5a1-3, 5b1-3 and 5c1-3 measured by MTT reduction ability on SH-SY5Y cells treated with different concentrations of the compounds for 24 h. Results are expressed relatively to untreated cells, with the mean ± standard error of the mean (SEM) derived from three independent experiments. * p < 0.05; ** p < 0.01; *** p < 0.001 compared to untreated cells. (The dot line indicates 100% cellular viability).

Data set [6] can be described thus: DPPH free radical scavenging (antioxidant) assay. To be noted: read-out: Antioxidant Activity EC50; DPPH method, mean of three independent experiments. (DPPH is a stable violet radical that fades when it is reduced.)
Protocol: The radical scavenging activity (antioxidant capacity) of the herein-developed RIV-IND hybrids was determined by the DPPH method [33]. Working solutions of the compounds in 10% DMSO/MeOH (, HoneywellSeelze, Germany) medium were used to prepare 5 methanolic solutions (5 points, 3 replicates) containing DPPH (Sigma-Aldrich, Steinheim, Germany) and different concentrations of compound up to 3.5 mL total volume. […] The respective antioxidant activity (%AA) was calculated using the following equation: %AA=ADPPH−Aligand/ADPPH×100
The reported results were obtained as the mean values of three independent experiments.
The new RIV-IND compounds were also screened for their radical scavenging activity (EC50), according to the 2,2-diphenyl-1-picrylhydrazyl (DPPH) free radical method.
For data set [7], the target named is T1, Aβ1-42. As to the kind of experiment: Inhibition of Aβ1-42 self-aggregation, thioflavin T fluorescence. The class given is biochemical. To be noted: Cinhibitor = 20 µM, Aβ1-42 40 µM, 37 °C, 24 h, read-out: Aβ42 Self-Aggreg. Inhib. On the procedure: The Aβ peptide (Genecust, Boynes, France) was treated with 1,1,1,3,3,3-hexafluoropropan-2-ol (HFIP, Aldrich, Steinheim, Germany) and dissolved in a CH3CN/Na2CO3 (300 µM)/NaOH (250 µM) ([…], v/v/v) mixture in order to have a stable stock solution of Aβ1-42 with concentration 500 µM.
Solutions of the assayed compounds (0.5 mg/mL) were firstly prepared in 60% (v/v) DMSO/MeOH medium and then diluted in phosphate buffer (0.215 M, pH 8.0) to a concentration of 120 µM. The Aβ1-42 aggregation inhibition assays were performed according to a reported method based on the fluorescence emission of thioflavin T (ThT, Aldrich Steinheim, Germany). Therefore, Aβ1-42 (40 µM) was incubated at 37 °C for 24 h in phosphate buffer and in the presence or absence of each ligand (20 µM). Then, the samples were added to a 96-well plate with 180 µL of 5 µM ThT in 50 mM glycine-NaOH (pH 8.5) buffer. Blank samples were identically prepared for each concentration but in the absence of the peptide. The ThT fluorescence was measured at 445 nm (excitation) and 485 nm (emission). The percent of aggregation inhibition was calculated by the following equation:I% = 100 − (IFi/IF0 × 100), in which IFi and IF0 are the fluorescence intensities, in the presence and the absence of the tested compound, subtracted from the fluorescence intensities due to the respective blanks. The reported values were obtained as the mean ± SEM of two different experiments performed in duplicate.
The inhibitory capacity of the RIV-IND hybrids towards Aβ42 self-aggregation was evaluated in vitro by molecular fluorescence spectroscopy through the thioflavin T (ThT) method. In fact, since there is an increase in the absorbance and emission of ThT when it binds to amyloid fibrils, it is possible to determine the percent of Aβ42 self-aggregation (see Table 1). The assays were performed in the presence of 20 µM of inhibitor to overcome the solubility limitations of some compounds in the phosphate buffer aqueous medium.

Details of data set [8]: method as in PMID 23344203. Conditions: reference antioxidant; read-out: radical scavenging activity EC50; cited from earlier work.

T1 sequence (P05067 672-713 limits assumed): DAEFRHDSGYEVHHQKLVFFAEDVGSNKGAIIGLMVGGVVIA
T3 sequence (P81908 whole entry): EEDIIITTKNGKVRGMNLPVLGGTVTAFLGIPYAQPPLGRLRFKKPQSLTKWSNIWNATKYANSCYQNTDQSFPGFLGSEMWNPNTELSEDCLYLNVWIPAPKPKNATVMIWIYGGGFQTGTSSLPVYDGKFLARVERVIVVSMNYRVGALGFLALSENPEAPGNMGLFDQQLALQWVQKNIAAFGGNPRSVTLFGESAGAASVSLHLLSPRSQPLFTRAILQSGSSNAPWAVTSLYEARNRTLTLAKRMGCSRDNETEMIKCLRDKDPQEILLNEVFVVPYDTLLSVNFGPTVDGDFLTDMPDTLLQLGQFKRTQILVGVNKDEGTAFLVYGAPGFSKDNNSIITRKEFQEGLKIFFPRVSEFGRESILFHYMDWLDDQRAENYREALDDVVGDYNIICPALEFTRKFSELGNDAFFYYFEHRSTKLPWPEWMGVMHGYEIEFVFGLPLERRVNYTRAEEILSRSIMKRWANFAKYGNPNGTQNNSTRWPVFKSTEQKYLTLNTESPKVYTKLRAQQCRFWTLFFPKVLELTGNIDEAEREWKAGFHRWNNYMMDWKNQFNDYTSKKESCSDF
T2 sequence (O42275 24-633): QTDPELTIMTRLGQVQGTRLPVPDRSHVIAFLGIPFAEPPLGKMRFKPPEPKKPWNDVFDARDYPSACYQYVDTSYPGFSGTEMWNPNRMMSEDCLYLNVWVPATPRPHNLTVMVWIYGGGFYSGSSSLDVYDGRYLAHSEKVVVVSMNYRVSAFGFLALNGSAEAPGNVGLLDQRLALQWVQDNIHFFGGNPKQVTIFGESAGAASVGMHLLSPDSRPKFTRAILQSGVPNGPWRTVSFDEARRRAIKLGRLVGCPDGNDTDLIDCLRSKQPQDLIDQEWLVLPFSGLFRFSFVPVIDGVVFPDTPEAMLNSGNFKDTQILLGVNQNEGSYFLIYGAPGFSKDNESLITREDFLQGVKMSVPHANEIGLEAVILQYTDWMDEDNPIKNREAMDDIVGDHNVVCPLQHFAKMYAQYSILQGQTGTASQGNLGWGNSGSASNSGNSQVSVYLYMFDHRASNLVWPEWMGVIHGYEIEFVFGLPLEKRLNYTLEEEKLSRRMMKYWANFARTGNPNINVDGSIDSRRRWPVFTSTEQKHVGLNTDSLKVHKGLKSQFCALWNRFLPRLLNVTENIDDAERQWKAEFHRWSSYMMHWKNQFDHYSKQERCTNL

With `COc1cc(/C=C/C(=O)CC(=O)/C=C/c2ccc(O)c(OC)c2)ccc1O` [Curcumin, curcumin], the “Aβ42 Self-Aggreg. Inhib” value in data set [1] is 65.7%.

Take `CCN(C)C(=O)Oc1cccc(CNC(=O)c2cc3cccc(O)c3[nH]2)c1` [Compound 5b3, 3-((7-Hydroxy-1H-indole-2-carboxamido)methyl)phenyl-ethyl(methyl)carbamate]: the IC50 in data set [2] was 80.7 ± 0.4 µM; in data set [3] (eqBChE, mean of two independent experiments ± SD, read-out: BChE Inhib IC50) it was 5.7 ± 0.3 µM. Besides, in data set [3] (IC50 (AChE)/IC50 (BChE)), the “SI (selectivity index)” value is 14.2. Besides, the “neuroprotective effect against toxicity induced by iron/ascorbate” value in data set [4] is given as “able to significantly increase cell viability after the trigger; also recorded: able to significantly protect cell viability after iron/ascorbate oxidative insult”. Also, the highest nontoxic concentration in data set [5] was found to be 10 µM. In addition, the EC50 in data set [6] is 20.2 ± 0.4 µM. Also, the inhibition at 20 µM in data set [7] was 47.8%.

Take `O=C1O[C@H]([C@@H](O)CO)C(O)=C1O` [vitamin C]: in data set [8], the EC50 is 15 µM.
